Measurements as given in patent US20010034454A1, “Description anti-mitotic agents which inhibit tubulin polymerization” (BYLOR UNIVERSITY AND ARIZONA DESEASE CONTROL RESEARCH …, priority 1998, published 2001).
Converted amounts (≈) assume the structure as drawn. Read-outs that look alike come from different tables or passages of the source.

Experiments:
P388 leukemia cells = experiment: Cytotoxic assay with P388 leukemia cells; type: cell-based, mouse
From the text: The tubulin polymerization compounds can also be tested for their ability to inhibit tumor cell growth.

tubulin = tested on: T1, tubulin; experiment: Tubulin polymerization assay; type: biochemical, bovine; conditions: for IC50: purified tubulin […], GTP-induced, 350 nm, final steady-state number for compounds other than 1A and 10A, read-out: IC50 for inhibition of tubulin polymerization
T1 construct: Purified tubulin is obtained from bovine brain cells as described in Hamel and Lin
Experimental: The ability of the various above described compounds to inhibit tubulin polymerization can be determined by in vitro assay. A suitable assay system is that described by Bai et al. A method for purifying tubulin from bovine brain cells is described by Hamel and Lin.
IC50 values for tubulin polymerization were determined according to the procedure described in Bai et al. Purified tubulin is obtained from bovine brain cells as described in Hamel and Lin. Various amounts of inhibitor were preincubated for 15 minutes at 37° C. with purified tubulin. After the incubation period, the reaction was cooled and GTP was added to induce tubulin polymerization. Polymerization was then monitored in a Gilford spectrophotometer at 350 nm. The final reaction mixtures (0.25 ml) contained 1.5 mg/ml tubulin, 0.6 mg/ml microtubule-associated proteins (MAPs), 0.5 mM GTP, 0.5 mM MgCl2, 4% DMSO and 0.1 M 4-morpholineethanesulfonate buffer (MES, pH 6.4). […]

SK-N-SH = experiment: Human cancer cell line studies, SK-N-SH; type: cell-based; conditions: Homo sapiens; Neuroblast SK-N-SH; read-out: GI50
Experimental: (§1) The assay used is described in Monks et al. Briefly, the cell suspensions, diluted according to tho particular cell type and the expected target cell density (5,000-40,000 cells per well based on cell growth characteristics), were added by pipet (100 μl) to 96-well microtiter plates. Inoculates were allowed a preincubation time of 24-28 hours at 37° C. for stabilization. Incubation with the inhibitor compounds lasted for 48 hours in 5% CO2 atmosphere and 100% humidity. Determination of cell growth was done by in situ fixation of cells, followed by staining with a protein-binding dye, sulforhodamine B (SRB), which binds to the basic amino acids of cellular macromolecules. The solubilized stain was measured spectrophotometrically.

DU-145 = experiment: Human cancer cell line studies, DU-145; type: cell-based; conditions: Homo sapiens; Prostate DU-145; read-out: GI50
Experimental: as §1

BXPC-3 = experiment: Human cancer cell line studies, BXPC-3; type: cell-based; conditions: Homo sapiens; Pancreas adn BXPC-3; read-out: GI50
Experimental: as §1

FADU = experiment: Human cancer cell line studies, FADU; type: cell-based; conditions: Homo sapiens; Pharynx-sqam FADU; read-out: GI50
Experimental: as §1

NCI-H460 = experiment: Growth inhibitory activity, human cancer cell line NCI-H460 (SRB); type: cell-based; conditions: Homo sapiens; Lung-NSC NCI-H460; read-out: GI50
Experimental: as §1

SW1736 = experiment: Human cancer cell line studies, SW1736; type: cell-based; conditions: Homo sapiens, SW-1736; Thyroid ca SW1736; read-out: GI50
Experimental: as §1

[1] = P388 mouse leukemia, dosage required to inhibit 50% of cell growth
[2] = Mus musculus, P388, read-out: ED50

Compound	ED50 (P388 leukemia cells; [1]) [µg/mL]	activity against P388 leukemia cells (P388 leukemia cells)	IC50 (P388 leukemia cells; P388 mouse leukemia, dosage required to inhibit 50% of cell growth, read-out: ED50 (the source's name)) [µg/mL]	tubulin polymerization inhibition (tubulin)	IC50 (P388 leukemia cells; [2]) [µg/mL]	polymerization curves at several concentrations (tubulin; 4, 10, and 40 μM)	GI50 (SK-N-SH) [µg/mL]	GI50 (DU-145) [µg/mL]	GI50 (BXPC-3) [µg/mL]	GI50 (FADU) [µg/mL]	GI50 (NCI-H460) [µg/mL]	GI50 (SW1736) [µg/mL]	IC50 (tubulin) [µM]	tubulin polymerization curve at 4 μM (tubulin; 4 μM)
COc1ccc(/C=C\c2cc(OC)c(OC)c(OC)c2)cc1N(Cc1ccccc1)Cc1ccccc1 [5-[(Z)-2-(3′,4′,5′-trimethoxyphenyl)ethenyl]-2-methoxy-N,N-bis-(phenylmethyl)aniline, reference compound]	33.9 (≈ 68.4 µM)	–	–	–	–	–	–	–	–	–	–	–	–	–
COc1ccc(-c2sc3cc(OC)ccc3c2C(=O)c2c(OC)cccc2OC)cc1 [Compound 2A, 3-(2′,6′-dimethoxybenzoyl)-2-(4′-methoxyphenyl)-6-methoxybenzo[b]thiophene]	>100	failed to show measurable activity against the leukemia cells	> 100	no observable tubulin polymerization inhibition activity	–	–	–	–	–	–	–	–	–	–
COc1ccc(-c2sc3cc(OC)ccc3c2C(=O)c2cc(OC)cc(OC)c2)cc1 [Compound 3A, 3-(3′,5′-dimethoxybenzoyl)-2-(4′-methoxyphenyl)-6-methoxybenzo[b]thiophene]	>100	failed to show measurable activity against the leukemia cells	–	no observable tubulin polymerization inhibition activity	> 100	–	–	–	–	–	–	–	–	–
CCOc1c(OC)cc(C(=O)c2c(-c3ccc(OC)cc3)sc3cc(OC)ccc23)cc1OC [Compound 10A, 3-(4′-ethoxy-3′,5′-dimethoxybenzoyl)-2-(4′-methoxyphenyl)-6-methoxybenzo[b]thiophene]	–	–	–	clear inhibition of tubulin polymerization of rate, but not of plateau	–	nearly identical	0.17 (≈ 0.355 µM)	0.35 (≈ 0.731 µM)	0.22 (≈ 0.46 µM)	0.31 (≈ 0.648 µM)	0.32 (≈ 0.669 µM)	0.31 (≈ 0.648 µM)	–	–
COc1ccc(-c2sc3cc(OC)ccc3c2C(=O)c2ccc(N(C)C)cc2)cc1 [Compound 11A, 3-(4′-N,N-dimethylaminobenzoyl)-2-(4′-methoxyphenyl)-6-methoxybenzo[b]thiophene]	–	–	–	–	–	–	> 10	> 10	> 10	> 10	> 10	> 10	> 40	–
COc1ccc(-c2cc3c(OC)ccc(C(=O)c4cc(F)c(F)c(F)c4)c3s2)cc1 [Compound 12A, 7-(3′,4′,5′-trifluorobenzoyl)-2-(4′-methoxyphenyl)-4-methoxybenzo[b]thiophene]	–	–	–	–	–	–	> 10	> 10	> 10	6.7 (≈ 15.6 µM)	> 10	> 10	> 40	–
COc1ccc(-c2cc3c(OC)ccc(C(=O)c4cc(OC)c(OC)c(OC)c4)c3s2)cc1 [Compound 13A, 7-(3′,4′,5′-trimethoxybenzoyl)-2-(4′-methoxyphenyl)-4-methoxybenzo[b]thiophene]	–	–	–	–	–	–	> 10	> 10	> 10	7.8 (≈ 16.8 µM)	> 10	> 10	> 40	–
COc1ccc(-c2sc3cc(OC)ccc3c2C(=O)c2cc(F)c(F)c(F)c2)cc1 [Compound 14A, 3-(3′,4′,5′-trifluorobenzoyl)-2-(4′-methoxyphenyl)-6-methoxybenzo[b]thiophene]	–	–	–	–	–	–	> 10	> 10	> 10	13.6 (≈ 31.7 µM)	> 10	> 10	> 40	–
COc1ccc(-c2sc3cc(OC)ccc3c2C(=O)c2c(F)c(F)c(F)c(F)c2F)cc1 [Compound 15A, 3-(2′,3′,4′,5′,6′-pentafluorobenzoyl)-2-(4′-methoxyphenyl)-6-methoxybenzo[b]thiophene]	–	–	–	–	–	–	1.4 (≈ 3.01 µM)	5 (≈ 10.8 µM)	5.9 (≈ 12.7 µM)	1.3 (≈ 2.8 µM)	7.9 (≈ 17 µM)	4 (≈ 8.61 µM)	> 40	–
COc1ccc(-c2sc3ccccc3c2C(=O)c2cc(OC)c(OC)c(OC)c2)cc1 [Compound 16A, 3-(3′,4′,5′-trimethoxybenzoyl)-2-(4′-methoxyphenyl)-benzo[b]thiophene]	–	–	–	–	–	–	0.83 (≈ 1.91 µM)	4.8 (≈ 11 µM)	1.7 (≈ 3.91 µM)	0.63 (≈ 1.45 µM)	2.7 (≈ 6.21 µM)	4.6 (≈ 10.6 µM)	> 40	–
COc1ccc(-c2sc3cc(OC)ccc3c2C(=O)/C=C/c2cc(OC)c(OC)c(OC)c2)cc1 [Compound 17A, E-3-[3′-(3′,4′,5′-trimethoxyphenyl)cinnamoyl]-2-(4′-methoxyphenyl)-6-methoxybenzo[b]thiophene]	–	–	–	–	–	–	1.3 (≈ 2.65 µM)	7.5 (≈ 15.3 µM)	2.3 (≈ 4.69 µM)	1.8 (≈ 3.67 µM)	3.9 (≈ 7.95 µM)	5.2 (≈ 10.6 µM)	> 40	–
CCOc1ccc(-c2sc3cc(OCC)ccc3c2C(=O)c2cc(OC)c(OC)c(OC)c2)cc1 [Compound 18A, 3-(3′,4′,5′-trimethoxybenzoyl)-2-(4′-ethoxyphenyl)-6-ethoxybenzo[b]thiophene]	–	–	–	–	–	–	0.33 (≈ 0.67 µM)	3.6 (≈ 7.31 µM)	1.6 (≈ 3.25 µM)	0.6 (≈ 1.22 µM)	1.4 (≈ 2.84 µM)	2.3 (≈ 4.67 µM)	> 40	–
COc1ccc(-c2sc3cc(OC)ccc3c2C(=O)c2cc(OC)c(O)c(OC)c2)cc1 [Compound 19A, 3-(4′-hydroxy-3′,5′-dimethoxybenzoyl)-2-(4′-methoxyphenyl)-6-methoxybenzo[b]thiophene]	>100	failed to show measurable activity against the leukemia cells	–	no observable tubulin polymerization inhibition activity	> 100	–	–	–	–	–	–	–	–	–
COc1ccc2c(c1)CCC=C2c1cc(OC)c(OC)c(OC)c1CO [Compound 25D, 1-(hydroxymethyl-3′,4′,5′-trimethoxyphenyl)-6-methoxy-3,4-dihydronaphthalene]	–	–	–	–	–	–	0.3 (≈ 0.842 µM)	2.6 (≈ 7.29 µM)	0.53 (≈ 1.49 µM)	0.51 (≈ 1.43 µM)	1.5 (≈ 4.21 µM)	2.1 (≈ 5.89 µM)	> 40	–
COc1ccc2c(c1)CCC=C2C(=O)c1cc(OC)c(OC)c(OC)c1 [Compound 26D, 1-(3′,4′,5′-trimethoxybenzoyl)-6-methoxy-3,4-dihydronaphthalene]	–	–	–	–	–	–	< 0.001	0.0038 (≈ 0.0107 µM)	0.003 (≈ 0.00846 µM)	0.0013 (≈ 0.00367 µM)	0.0033 (≈ 0.00931 µM)	0.0048 (≈ 0.0135 µM)	1.7	total flat
COc1cc(/C=C\c2cc(OC)c(OC)c(OC)c2)ccc1[N+](=O)[O-] [Compound 27E, (Z)-1-(3′-methoxy-4′-nitrophenyl)-2-(3″,4″,5″-trimethoxyphenyl) ethene]	–	–	–	–	–	–	2.1 (≈ 6.08 µM)	2.6 (≈ 7.53 µM)	1.9 (≈ 5.5 µM)	1.1 (≈ 3.19 µM)	2.3 (≈ 6.66 µM)	3.3 (≈ 9.56 µM)	> 40	–
